Series [1] concerns the target human histamine 3 receptor (hH3R) (Homo sapiens (Human), UniProt Q9Y5N1). In words: Binding affinity of human histamine 3 receptor (hH3R), [3H] labeled N-α-methylhistamine displacement. The settings on record: hH3R-overexpressed cell membrane, [3H] N-α-methylhistamine. The procedure, abridged:
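Membranes from cells overexpressing hH3R (15 μg) were incubated with compound and [3H]N-α-methylhistamine (20 μM stock) in 50 mM Tris-HCl pH 7.4, 5 mM MgCl2 for 30 min at 27 °C. Bound radioligand was counted by scintillation after filtration; 200 μM (R)(−)-α-methylhistamine stock defined non-specific binding; IC50 derived.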

The target in series [2] is human histamine 4 receptor (hH4R) (Homo sapiens (Human), UniProt Q9H3N8). In words: Binding affinity of human histamine 4 receptor (hH4R), [3H] labeled histamine displacement. To be noted: hH4R-overexpressed cell membrane, [3H] histamine. Put shortly:
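Membranes of hH4R-overexpressing cells (25 μg) incubated with compound and [3H]histamine (diluted to 1 μM before addition) for 30 min at 27° C. Non-specific binding defined with histamine (100 μM before addition); bound radioligand collected by filtration on PEI-presoaked glass fibre, washed with 50 mM Tris-HCl pH 7.4, counted by scintillation (CPM).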

A short description of series [3]: Metabolic stability in mouse microsome. The settings on record: mouse microsome 1 mg/mL, 5 μM compound, 1 mM NADPH.
The nature of series [4]: Solubility in artificial gastrointestinal tract solution. In kind it is physicochemical. The settings on record: thermodynamic from solid; for solubility at 1 h: fassgf or other biorelevant, first solution pH 1.2, 2 mg/mL sample, 37° C. 1 hour; for solubility at 2 h: fassif, second solution pH 6.5, 2 mg/mL sample, 37° C. 2 hours. As for the experimental part: 2.0 g of sodium chloride was added in 7.0 mL of 37% of hydrochloric acid and water to make the total volume of 1 L. The pH was adjusted to exactly 1.2 with 1N sodium hydroxide or 1N hydrochloric acid. A small amount (20 mL) of this solution was taken and added in 25 μL of triton X-100 to make the total volume of 25 mL.
0.348 g sodium hydroxide, 3.438 g NaH2PO4, 6.186 g sodium chloride and water were added to make the total volume of 1 L. The pH was adjusted to exactly 6.5 with 1N sodium hydroxide or 1N hydrochloric acid. A small amount (20 mL) of this solution was taken and 41.25 mg of sodium taurocholate hydrate and 25 μL of 750 mM lecithin dissolved in ethanol was added to make the total volume of 25 mL.
The heated test sample solutions were filtered to remove undissolved compounds therein. Finally, 100 μL of the completely compound-dissolved solution was sampled and 100 μL of CH3CN was added thereto to make the test sample solution. For each analysis of the test sample solution, the solubility was measured by using liquid chromatography.

Series [5] can be described thus: Metabolic stability in human microsome. To be noted: human microsome 1 mg/mL, 5 μM compound, 1 mM NADPH.
A short description of series [6]: Mouse pharmacokinetics (oral). The series is classed as in vivo. The settings on record: plasma, 50 mg/kg, ICR mouse, 5 mg/mL solution at 10 mL/kg; for AUC(0-inf): read-out: Mouse pharmacokinetics AUCinf; for half-life: read-out: Mouse pharmacokinetics t1/2 (converted). As for the experimental part:
The weight of each ICR mouse and SD rat was properly 20˜30 g and 200˜300 g, and dosage of the compound of the present invention was 10 mL/kg for mice and 5 mL/kg for rats, and administered orally using Zonde. Blood collection was performed at 0.25, 0.5, 1, 2, 4, 6, 8 and 24 hours by orbital venous blood collection using a capillary tube coated with an anticoagulant, and then plasma was isolated using a centrifuge and kept in a freezer.
Plasma collected from animals and standard concentration material were pretreated using solid-phase extraction, and concentration of the compound of the invention was determined using a liquid chromatography mass spectrometer (Agilent HPLC, API-3000).
According to the resulting concentration value, the pharmacokinetics parameter was found using WinNonlin (Version 6.2) and half-life (t1/2), maximum blood concentration (Cmax) and infinite area under the curve (AUCinf) are shown in Tables 6 and 7 below.

Where [7] appears, read: artificial gastrointestinal tract solution.

We go through 13 compounds from patent publication US9586959B2, “Substituted tricyclic heterocycles as histamine 4 receptor inhibitors” (C&C RESEARCH LABORATORIES, priority 2011, dated 2017).

In brackets after ≈: the same amount, converted by molar mass.

Sequence of human histamine 4 receptor (hH4R) (Q9H3N8 whole entry): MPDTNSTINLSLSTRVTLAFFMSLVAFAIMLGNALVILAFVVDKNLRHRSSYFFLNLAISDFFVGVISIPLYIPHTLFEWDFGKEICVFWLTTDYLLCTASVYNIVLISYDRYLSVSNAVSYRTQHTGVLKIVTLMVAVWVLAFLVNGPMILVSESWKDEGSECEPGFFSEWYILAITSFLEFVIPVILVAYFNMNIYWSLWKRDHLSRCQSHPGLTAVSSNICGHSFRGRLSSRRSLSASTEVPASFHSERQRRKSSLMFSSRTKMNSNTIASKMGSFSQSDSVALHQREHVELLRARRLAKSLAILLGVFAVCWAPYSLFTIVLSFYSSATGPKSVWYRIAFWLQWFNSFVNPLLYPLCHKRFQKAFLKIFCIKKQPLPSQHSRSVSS
Sequence of human histamine 3 receptor (hH3R) (Q9Y5N1 whole entry): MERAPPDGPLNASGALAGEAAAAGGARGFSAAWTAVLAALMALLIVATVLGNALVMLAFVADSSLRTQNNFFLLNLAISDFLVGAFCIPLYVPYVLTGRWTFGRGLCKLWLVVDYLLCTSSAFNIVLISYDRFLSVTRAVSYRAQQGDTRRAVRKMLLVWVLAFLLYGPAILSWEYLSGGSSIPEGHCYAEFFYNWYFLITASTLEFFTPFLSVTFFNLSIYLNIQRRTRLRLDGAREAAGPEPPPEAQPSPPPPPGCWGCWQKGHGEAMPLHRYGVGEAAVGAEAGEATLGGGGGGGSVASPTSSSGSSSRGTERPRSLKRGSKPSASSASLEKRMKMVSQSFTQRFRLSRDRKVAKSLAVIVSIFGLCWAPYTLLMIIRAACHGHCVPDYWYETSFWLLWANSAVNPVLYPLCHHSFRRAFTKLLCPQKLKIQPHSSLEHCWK

In general, IC50 refers to the concentration needed to halve the response being measured. Read a high IC50 as lower potency. One may read the solubility as the dissolved amount per volume that the medium holds. On to `C[C@H]1CN(c2nc3ncc(Cl)cc3n3cnnc23)CCN1` [Compound 19, (S)-8-chloro-4-(3-methylpiperazin-1-yl)pyrido[2,3-e][1,2,4]triazolo[4,3-a]pyrazine], for which the 50% inhibitory concentration (IC50) in series [1] is over 100 µM. This compound also came in with an IC50 in series [2] of 0.76 µM. For the same compound, the “Metabolic stability (CLh. int), Mouse” value in series [3] was 26160 µL/min/mg. In series [4] (setting [7]), the solubility at 1 h was 1.98 mg/mL (≈ 6.5 mM) and the concentration in solution (solubility at 2 h) was 1.7 mg/mL (≈ 5.58 mM). Moreover, the “Metabolic stability (CLh. int), Human” value in series [5] was 960 µL/min/mg.

In the case of `CNC1CN(c2nc3ncc([N+](=O)[O-])cc3n3cnnc23)C1` [Compound 111, N-methyl-1-(8-nitropyrido[2,3-e][1,2,4]triazolo[4,3-a]pyrazin-4-yl)azetidin-3-amine], the concentration for half-maximal inhibition (IC50) in series [1] is over 100 µM. Further, the concentration for half-maximal inhibition (IC50) in series [2] is 0.24 µM. Besides, the “Metabolic stability (CLh. int), Mouse” value in series [3] worked out at 5230 µL/min/mg. In series [4] (setting [7]), the solubility at 1 h turned out to be 1.9 mg/mL (≈ 6.33 mM) and the concentration in solution (solubility at 2 h) came to 1.07 mg/mL (≈ 3.55 mM). In addition, in series [5], the “Metabolic stability (CLh. int), Human” value turned out to be 4200 µL/min/mg.

The compound `CN1CCN(c2nc3ncc(Br)cc3n3cnnc23)CC1` [Compound 12, 8-Bromo-4-(4-methylpiperazin-1-yl)pyrido[2,3-e][1,2,4]triazolo[4,3-a]pyrazine] registered an IC50 in series [2] of 0.067 µM. Moreover, the “Metabolic stability (CLh. int), Mouse” value in series [3] is 14420 µL/min/mg. In series [4] (setting [7]), this compound registered a solubility at 1 h of 1.93 mg/mL (≈ 5.54 mM) and a solubility at 2 h of 0.679 mg/mL (≈ 1.95 mM). Moreover, in series [5], the “Metabolic stability (CLh. int), Human” value came to 3730 µL/min/mg.

Regarding `CNC1CN(c2nc3ncc(Br)cc3n3nnnc23)C1.Cl` [Compound 69, 1-(8-Bromopyrido[2,3-e]tetrazolo[1,5-a]pyrazin-4-yl)-N-methylazetidin-3-amine hydrochloride], the half-maximal inhibitory concentration (IC50) in series [1] is over 100 µM. The 50% inhibitory concentration (IC50) in series [2] is 0.035 µM. Also, the “Metabolic stability (CLh. int), Mouse” value in series [3] stood at 14040 µL/min/mg. In series [4] (setting [7]), this compound returned a solubility at 1 h of 1.81 mg/mL and a solubility at 2 h of 1.92 mg/mL. The “Metabolic stability (CLh. int), Human” value in series [5] was 5690 µL/min/mg.

For `CNC1CN(c2nc3ncc(Br)cc3n3cnnc23)C1.Cl` [Compound 68, 1-(8-Bromopyrido[2,3-e][1,2,4]triazolo[4,3-a]pyrazin-4-yl)-N-methylazetidin-3-amine hydrochloride], the IC50 in series [1] was over 100 µM; in series [2] (hydrochloride) it was 0.13 µM. Also, in series [3], the “Metabolic stability (CLh. int), Mouse” value was 3930 µL/min/mg. In series [4] (setting [7]), this compound returned a solubility at 1 h of 1.82 mg/mL. The solubility at 2 h in series [4] (setting [7]) is 1.76 mg/mL. In addition, in series [5], the “Metabolic stability (CLh. int), Human” value was 300 µL/min/mg.

With `C[C@H]1CN(c2nc3ncc(Cl)cc3n3cnnc23)CCN1C` [Compound 20, (S)-8-chloro-4-(3,4-dimethylpiperazin-1-yl)pyrido[2,3-e][1,2,4]triazolo[4,3-a]pyrazine], the half-inhibitory concentration (IC50) in series [1] is over 100 µM; in series [2], 0.38 µM. Further, the “Metabolic stability (CLh. int), Mouse” value in series [3] worked out at 7570 µL/min/mg. In series [4] (setting [7]), the solubility at 1 h is 2.07 mg/mL (≈ 6.51 mM). In addition, the concentration in solution in series [4] (setting [7]) (solubility at 2 h) came to 1.65 mg/mL (≈ 5.18 mM). In series [5], the “Metabolic stability (CLh. int), Human” value amounted to 1620 µL/min/mg.

As to `CNC1CN(c2nc3ncc(C(F)(F)F)cc3n3cnnc23)C1` [Compound 52, N-Methyl-1-(8-(trifluoromethyl)pyrido[2,3-e][1,2,4]triazolo[4,3-a]pyrazin-4-yl)azetidin-3-amine], the IC50 in series [1] was over 100 µM. The IC50 in series [2] was determined as 0.22 µM. Moreover, the “Metabolic stability (CLh. int), Mouse” value in series [3] stood at 2050 µL/min/mg. In series [4], this compound registered a solubility at 1 h of 1.67 mg/mL (≈ 5.18 mM) and a solubility at 2 h of 1.46 mg/mL (≈ 4.53 mM). Also, the “Metabolic stability (CLh. int), Human” value in series [5] stood at 1320 µL/min/mg.

As for `CNC1CN(c2nc3ncc(Cl)cc3n3ccnc23)C1` [Compound 88, 1-(8-Chloroimidazo[1,2-a]pyrido[2,3-e]pyrazin-4-yl)-N-methylazetidin-3-amine], in series [1], the half-maximal inhibitory concentration (IC50) is over 100 µM. In addition, in series [2], the IC50 is 0.26 µM. Besides, the “Metabolic stability (CLh. int), Mouse” value in series [3] worked out at 11770 µL/min/mg. For the same compound, in series [4] (setting [7]), the solubility at 1 h was 1.82 mg/mL (≈ 6.31 mM) and the solubility at 2 h is 1.58 mg/mL (≈ 5.46 mM). Also, in series [5], the “Metabolic stability (CLh. int), Human” value worked out at 2870 µL/min/mg.

For the compound `CNC1CN(c2nc3ncc(Br)cc3c3ccnn23)C1` [Compound 110, 1-(9-bromopyrazolo[1,5-c]pyrido[3,2-e]pyrimidin-5-yl)-N-methylazetidin-3-amine], the IC50 in series [1] is over 100 µM. Also, the half-inhibitory concentration (IC50) in series [2] came out at 0.16 µM. Further, the “Metabolic stability (CLh. int), Mouse” value in series [3] stood at 1780 µL/min/mg. In series [4] (setting [7]), this compound showed a solubility at 1 h of 1.87 mg/mL (≈ 5.62 mM) and a solubility at 2 h of 0.708 mg/mL (≈ 2.13 mM). In addition, in series [5], the “Metabolic stability (CLh. int), Human” value turned out to be 3880 µL/min/mg.

A word on the Cmax: it is the maximum level reached in the sampled fluid or tissue. Consider `Cc1nc2c3cc(Cl)cnc3nc(N3CCNCC3)n2n1` [Compound 32, 9-Chloro-2-methyl-5-(piperazin-1-yl)pyrido[3,2-e][1,2,4]triazolo[1,5-c]pyrimidine], for which the 50% inhibitory concentration (IC50) in series [1] is over 100 µM. In series [2], this compound displayed an IC50 of 0.073 µM. Also, the “Metabolic stability (CLh. int), Mouse” value in series [3] came to 8390 µL/min/mg. In series [4] (setting [7]), this compound displayed a solubility at 1 h of 1.35 mg/mL (≈ 4.43 mM) and a solubility at 2 h of 1.15 mg/mL (≈ 3.79 mM). Besides, the “Metabolic stability (CLh. int), Human” value in series [5] was 1030 µL/min/mg. In series [6], the highest level (Cmax) was 10.1 µg/mL, the AUC(0-inf) came out at 74.9 µg·h/mL and the half-life is 5.39 h.

As to `Brc1cnc2nc(N3CCNCC3)c3nncn3c2c1` [Compound 16, 8-Bromo-4-(piperazin-1-yl)pyrido[2,3-e][1,2,4]triazolo[4,3-a]pyrazine], the IC50 in series [1] was over 100 µM. Besides, the IC50 in series [2] worked out at 0.065 µM. For the same compound, the “Metabolic stability (CLh. int), Mouse” value in series [3] turned out to be 10420 µL/min/mg. Besides, in series [4] (setting [7]), the solubility at 1 h amounted to 1.93 mg/mL (≈ 5.78 mM) and the solubility at 2 h came to 0.758 mg/mL (≈ 2.27 mM). Moreover, the “Metabolic stability (CLh. int), Human” value in series [5] was 4080 µL/min/mg. In series [6], the Cmax was 8.27 µg/mL, the AUC(0-inf) turned out to be 15.9 µg·h/mL and the half-life was 1.18 h.

For the compound `CNC1CN(C2=Nc3ncc(Br)cc3N3CCN=C23)C1` [Compound 107, 1-(8-bromo-1,2-dihydroimidazo[1,2-a]pyrido[2,3-e]pyrazin-4-yl)-N-methylazetidin-3-amine], the half-inhibitory concentration (IC50) in series [1] is over 100 µM; in series [2] it was 0.62 µM. In addition, the “Metabolic stability (CLh. int), Mouse” value in series [3] is 8150 µL/min/mg. This compound also returned a solubility at 1 h in series [4] (setting [7]) of 1.42 mg/mL (≈ 4.22 mM). In series [4] (setting [7]), this compound showed a solubility at 2 h of 1.57 mg/mL (≈ 4.68 mM). The “Metabolic stability (CLh. int), Human” value in series [5] turned out to be 5160 µL/min/mg.

Take `CNC1CN(c2nc3ncc(C)cc3n3cnnc23)C1` [Compound 50, N-Methyl-1-(8-methylpyrido[2,3-e][1,2,4]triazolo[4,3-a]pyrazin-4-yl)azetidin-3-amine]: the IC50 in series [1] is over 100 µM. In series [2], this compound had an IC50 of 0.19 µM. For the same compound, in series [3], the “Metabolic stability (CLh. int), Mouse” value was determined as 9080 µL/min/mg. In series [4] (setting [7]), this compound displayed a solubility at 1 h of 1.99 mg/mL (≈ 7.38 mM) and a solubility at 2 h of 1.87 mg/mL (≈ 6.95 mM). For the same compound, the “Metabolic stability (CLh. int), Human” value in series [5] was 1900 µL/min/mg.
